Experimental data: US9278925B2, “Substituted 3-(biphenyl-3-yl)-4-hydroxy-8-methoxy-1-azaspiro[4.5]dec-3-en-2-one” (BAYER INTELLECTUAL PROPERTY GMBH, priority 2011, dated 2016)
Read-outs that look alike come from different tables or passages of the source.

Experiment: Prediction of human pharmacokinetic parameters and human therapeutic dosage (single species scaling from rat)
Conditions: for AUC / clearance: human, plasma; for AUC: read-out: calc. AUC (human); for clearance / pred. CL (human): predicted (fu-corrected) from rat PK; for clearance: read-out: pred. CL (human) (converted)
Method: The human pharmacokinetic (PK) parameters (Table 9) were predicted based on the in vivo PK parameters obtained for rats (single species scaling), taking into account the interspecies differences in the free fraction (fu) in the plasma. The effective AUC (area under curve) was determined based on the measured plasma concentration time profile for in vivo efficacy in the PC3 tumour model of the mouse (nu/nu mouse). The therapeutic human dosage was determined using the predicted human clearance (CL), assuming 100% bioavailability (F=1) and using the effective AUC in the animal model according to the formula below: […]

[1] = from mouse dosage 80 mg/kg 2 × per day

Compound: COC[C@]1(OC)CC[C@@]2(CC1)NC(=O)C(c1cc(-c3ccc(Cl)c(F)c3)ccc1C)=C2O [Example 1-4, (5r,8r)-3-(4′-Chloro-3′-fluoro-4-methylbiphenyl-3-yl)-4-hydroxy-8-methoxy-8-(methoxymethyl)-1-azaspiro[4.5]dec-3-en-2-one]
- AUC [1]: 4130 µg·h/mL
- clearance: 3 mL/h/kg

Compound: CO[C@]1(C(F)(F)F)CC[C@]2(CC1)NC(=O)C(c1cc(-c3ccc(Cl)cc3)ccc1C)=C2O [Example 1-1, (5r,8r)-3-(4′-Chloro-4-methylbiphenyl-3-yl)-4-hydroxy-8-methoxy-8-(trifluoromethyl)-1-azaspiro[4.5]dec-3-en-2-one]
- AUC [1]: 1160 µg·h/mL
- clearance: 2 mL/h/kg

Compound: CO[C@]1(C)CC[C@]2(CC1)NC(=O)C(c1cc(-c3ccc(Cl)cc3)ccc1C)=C2O [Example V.1-a, (5r,8r)-3-(4′-Chloro-4-methylbiphenyl-3-yl)-4-hydroxy-8-methoxy-8-methyl-1-azaspiro[4.5]dec-3-en-2-one]
- calc. AUC (human) (from mouse dosage 100 mg/kg 1 × per day): 6494 µg·h/mL
- calc. AUC (human) (from mouse dosage 100 mg/kg 2 × per day): 9867 µg·h/mL
- pred. CL (human): 3 mL/h/kg

Compound: CO[C@]1(C(F)(F)F)CC[C@]2(CC1)NC(=O)C(c1cc(-c3ccc(Cl)c(F)c3)ccc1C)=C2O [Example 1-2, (5r,8r)-3-(4′-Chloro-3′-fluoro-4-methylbiphenyl-3-yl)-4-hydroxy-8-methoxy-8-(trifluoromethyl)-1-azaspiro[4.5]dec-3-en-2-one]
- AUC (from mouse dosage 40 mg/kg 2 × per day): 355 µg·h/mL
- AUC [1]: 842 µg·h/mL
- clearance: 9 mL/h/kg

Compound: CO[C@]1(C)CC[C@]2(CC1)NC(=O)C(c1cc(-c3ccc(Cl)c(F)c3)ccc1C)=C2O [Example V.2-a, (5r,8r)-3-(4′-Chloro-3′-fluoro-4-methylbiphenyl-3-yl)-4-hydroxy-8-methoxy-8-methyl-1-azaspiro[4.5]dec-3-en-2-one]
- calc. AUC (human) (from mouse dosage 80 mg/kg 1 × per day): 3737 µg·h/mL
- calc. AUC (human) [1]: 4702 µg·h/mL
- pred. CL (human): 6 mL/h/kg
